Reference: patent US20040224942A1 (priority 2003, published 2004)
“And” between values parts separate entries of the source, which are not always exact repeats. Equal entries are not always repeated. Where two headings read alike, the source gives them in different places.

Experiments:
[1] = biological target: T1, M5 muscarinic receptor (Homo sapiens, UniProt P08912); assay: R-SAT functional receptor assay, M5; assay type: cell-based; settings: for Emax: read-out: % Efficacy M5; for % Efficacy M5: relative to full agonist carbachol
T1 construct: expressed in transfected cells
T1 sequence (P08912 1-532): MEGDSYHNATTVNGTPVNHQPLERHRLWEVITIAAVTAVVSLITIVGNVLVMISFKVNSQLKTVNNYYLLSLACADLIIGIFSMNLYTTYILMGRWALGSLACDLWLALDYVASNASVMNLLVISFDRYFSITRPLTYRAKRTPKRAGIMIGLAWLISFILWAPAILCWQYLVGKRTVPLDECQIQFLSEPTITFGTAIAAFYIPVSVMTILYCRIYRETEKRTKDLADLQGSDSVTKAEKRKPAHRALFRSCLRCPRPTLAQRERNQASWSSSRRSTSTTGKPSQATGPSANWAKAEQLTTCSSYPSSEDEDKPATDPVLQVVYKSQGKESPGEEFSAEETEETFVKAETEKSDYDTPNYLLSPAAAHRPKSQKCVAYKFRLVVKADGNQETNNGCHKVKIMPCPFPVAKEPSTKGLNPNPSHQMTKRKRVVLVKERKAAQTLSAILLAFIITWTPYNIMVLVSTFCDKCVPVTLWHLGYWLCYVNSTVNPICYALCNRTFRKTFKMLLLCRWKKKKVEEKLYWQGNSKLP

[2] = biological target: T2, M4 muscarinic receptor (Homo sapiens, UniProt P08173); assay: cell-based; settings: read-out: % Efficacy M4
T2 sequence (P08173 1-479): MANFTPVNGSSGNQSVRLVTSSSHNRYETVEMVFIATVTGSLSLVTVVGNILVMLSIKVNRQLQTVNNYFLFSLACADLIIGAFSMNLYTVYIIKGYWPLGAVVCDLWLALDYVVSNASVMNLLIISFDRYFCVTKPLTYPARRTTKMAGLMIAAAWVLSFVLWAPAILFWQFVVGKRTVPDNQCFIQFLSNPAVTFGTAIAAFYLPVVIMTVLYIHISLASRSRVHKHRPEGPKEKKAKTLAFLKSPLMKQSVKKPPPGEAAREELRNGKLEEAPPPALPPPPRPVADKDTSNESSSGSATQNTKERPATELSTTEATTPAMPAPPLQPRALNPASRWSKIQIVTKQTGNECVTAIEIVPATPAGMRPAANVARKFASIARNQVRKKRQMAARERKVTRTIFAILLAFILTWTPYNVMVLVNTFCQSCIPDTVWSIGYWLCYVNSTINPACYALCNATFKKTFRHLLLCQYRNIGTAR

[3] = biological target: T3, M2 muscarinic receptor (Homo sapiens, UniProt P08172); assay: R-SAT functional receptor assay, M2; settings: for Emax: read-out: % Efficacy M2
T3 sequence (P08172 1-466): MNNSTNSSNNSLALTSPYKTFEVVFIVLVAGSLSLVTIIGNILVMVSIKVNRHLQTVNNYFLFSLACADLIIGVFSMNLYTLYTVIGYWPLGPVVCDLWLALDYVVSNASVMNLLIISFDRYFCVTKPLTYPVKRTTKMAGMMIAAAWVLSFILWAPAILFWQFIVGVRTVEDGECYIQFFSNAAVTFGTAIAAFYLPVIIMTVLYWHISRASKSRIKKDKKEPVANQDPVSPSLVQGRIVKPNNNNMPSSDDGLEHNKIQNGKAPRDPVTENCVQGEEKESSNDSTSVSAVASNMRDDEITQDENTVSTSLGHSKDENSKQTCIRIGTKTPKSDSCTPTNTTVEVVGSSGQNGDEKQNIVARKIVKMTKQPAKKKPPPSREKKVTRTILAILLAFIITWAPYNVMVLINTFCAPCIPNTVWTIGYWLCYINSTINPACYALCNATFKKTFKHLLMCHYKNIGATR

[4] = test system: hippocampal MAP kinase (MAPK) activity in CA1 pyramidal neurons; assay: hippocampal MAP kinase activation assay after parenteral administration; assay type: in vivo, C57BL6 mice
[5] = biological target: T4, human M1 muscarinic receptors (Homo sapiens, UniProt P11229); settings: R-SAT; relative to full agonist carbachol; ± standard deviation
T4 sequence (P11229 whole entry): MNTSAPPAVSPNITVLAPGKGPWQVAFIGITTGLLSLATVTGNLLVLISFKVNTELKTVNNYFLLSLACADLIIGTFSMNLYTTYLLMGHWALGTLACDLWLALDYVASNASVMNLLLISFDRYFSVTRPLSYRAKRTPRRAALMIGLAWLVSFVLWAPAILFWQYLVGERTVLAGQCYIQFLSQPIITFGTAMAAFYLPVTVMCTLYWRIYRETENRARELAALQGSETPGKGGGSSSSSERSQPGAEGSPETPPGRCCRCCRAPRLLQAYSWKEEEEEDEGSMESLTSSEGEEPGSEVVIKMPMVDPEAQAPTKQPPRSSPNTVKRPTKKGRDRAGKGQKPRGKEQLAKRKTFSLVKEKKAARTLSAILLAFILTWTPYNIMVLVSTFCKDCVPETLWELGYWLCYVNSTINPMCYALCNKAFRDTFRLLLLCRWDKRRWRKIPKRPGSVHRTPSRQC

[6] = biological target: T4, human M1 muscarinic receptors; settings: PI hydrolysis; ± standard deviation
[7] = biological target: T4, human M1 muscarinic receptors; assay: cell-based; settings: ± standard deviation
[8] = biological target: T4, human M1 muscarinic receptors; assay: cell-based
[9] = biological target: M3 muscarinic receptor (Homo sapiens, UniProt P20309); assay: R-SAT functional receptor assay, M3; settings: for Emax: read-out: % Efficacy M3
Sequence of M3 muscarinic receptor (P20309 whole entry): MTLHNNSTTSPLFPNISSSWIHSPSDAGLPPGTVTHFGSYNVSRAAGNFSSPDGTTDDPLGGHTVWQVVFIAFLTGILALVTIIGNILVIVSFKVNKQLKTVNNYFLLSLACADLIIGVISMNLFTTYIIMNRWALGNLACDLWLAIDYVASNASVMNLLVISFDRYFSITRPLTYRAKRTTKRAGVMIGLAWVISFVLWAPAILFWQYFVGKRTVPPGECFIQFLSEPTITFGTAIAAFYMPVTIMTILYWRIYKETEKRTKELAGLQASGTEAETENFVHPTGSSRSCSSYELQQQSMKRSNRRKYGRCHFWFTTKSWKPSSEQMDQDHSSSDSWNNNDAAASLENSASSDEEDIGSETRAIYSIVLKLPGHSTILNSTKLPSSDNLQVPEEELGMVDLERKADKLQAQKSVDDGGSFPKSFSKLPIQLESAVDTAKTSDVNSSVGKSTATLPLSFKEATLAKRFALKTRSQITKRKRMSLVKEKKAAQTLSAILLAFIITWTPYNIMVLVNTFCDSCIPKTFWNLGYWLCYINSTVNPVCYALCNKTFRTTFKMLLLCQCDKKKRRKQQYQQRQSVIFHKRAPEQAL

[10] = biological target: T2, M4 muscarinic receptor; settings: R-SAT; relative to full agonist carbachol; ± standard deviation

C[N+](C)(C)CCOC(N)=O [Carbachol, carbachol]
Emax [1]: 105 ± 3% | Emax [2]: 96 ± 3%

CN1CCN(C2=Nc3cc(Cl)ccc3Nc3ccccc32)CC1 [Clozapine, clozapine]
% Efficacy M5 ([1]; R-SAT, ± standard deviation): no response | Emax [2]: 49 ± 6% | Emax [3]: 57 ± 4%

Clc1ccc2c(c1)N=C(N1CCNCC1)c1ccccc1N2 [N-desmethylclozapine, 8-chloro-11-(1-piperazinyl)-5H-dibenzo[b,e][1,4]diazepine]
EC50 ([1]; R-SAT, ± standard deviation, read-out: pEC50 M5 (converted)): 45.7 nM | Emax [1]: 66 ± 4% | blood brain barrier penetration ([4]; concluded from central MAPK activation after s.c. dosing): penetrates the blood brain barrier | MAPK activation in hippocampus ([4]; s.c., dose of 30 mg/kg): Robust activation | phospho-MAPK immunoreactivity in CA1 pyramidal neurons ([4]; s.c., immunohistochemistry, compared to vehicle or clozapine treatment): increased phospho-MAPK immunoreactivity | % Efficacy M1 [5]: 61 ± 5% | pEC50 M1 [6]: 7.01 ± 0.06 | EC50 ([7]; pEC50 M1, R-SAT): 63.1 nM and 60.3 nM | Emax ([7]; read-out: % Efficacy M1, R-SAT, relative to full agonist carbachol): 65% | Emax [2]: 88 ± 3% | EC50 [8]: 100 nM | Emax ([8]; read-out: % Efficacy M1, PI hydrolysis, relative to full agonist carbachol, ± standard deviation): > 65% | EC50 [3]: 182 nM | Emax [3]: 78 ± 7% | EC50 [9]: 129 nM | Emax [9]: 19 ± 3%

Cc1cc2c(s1)Nc1ccccc1N=C2N1CCN(C)CC1 [Olanzapine, olanzapine]
% Efficacy M5 ([1]; R-SAT, ± standard deviation): no response | % Efficacy M4 [10]: no response | % Efficacy M2 ([3]; R-SAT, relative to full agonist carbachol, ± standard deviation): no response

CCCCCCOc1nsnc1C1=CCCN(C)C1 [Xanomeline]
Emax [1]: 86 ± 12% | Emax [2]: 116 ± 9% | Emax [3]: 106 ± 9% | Emax [9]: 66 ± 6%
